Key:
T cells = experiment: T cell proliferation (anti-CD3/anti-CD28 dynabeads, CCK-8); format: cell-based, mice; settings: Table 4, mouse T cells, 72 hours after dynabeads, read-out: Scoring (IC50, cell proliferation)
Experimental: Spleens were obtained from six male, CD-1 outbred mice, approximately 8 weeks old. Cells were harvested under sterile conditions by forcing each spleen though a cell filter (pore size 100 μm diameter). A homogenous cell suspension was obtained by washing the cells in fresh medium and passing cells through a smaller cell filter (pore size 70 μm).
Untouched T cells were isolated using the Pan T cell isolation kit (Miltenyi Biotech). Briefly, cells were counted and incubated with the required volume of antibody cocktail for 5 minutes at 4° C. before addition of microbeads and incubation for 10 minutes at 4° C. Labeled cells were retained in a magnetic column while unlabeled cells (T cells) passed through the column and were retained for use in the assay.
Cell viability was assessed by Trypan Blue exclusion and found to be >99% prior to transfer to plates. Isolated T cells were seeded out in 96 well plates at a density of 50,000 cells per well and allowed to incubate for 60 minutes in a humidified cell culture (37° C., 5% CO2) incubator prior to compound treatment. The media used for this assay (TexMACS, Miltenyi Biotech) was previously optimized for proliferation of T cells in serum free conditions.
Representative compounds of the invention (i.e., test compounds) were prepared as 30 mM stocks in 100% DMSO. Test compounds were initially diluted in media to yield 3 mM stocks before an additional 1:10 dilution in media was performed to yield working stocks of 300 μM (1% DMSO). Subsequent dilutions were performed in media (supplemented with 1% DMSO). When added to the assay plates (1:10 dilution), these yielded final concentrations in the assay plates of in 0.1% DMSO. The reference compound, Cyclosporin A, was prepared in an identical manner as above.
Unstimulated and Stimulated Control wells received an identical volume of TexMACS media/1% DMSO at this time, resulting in a final concentration of 0.1% DMSO across the plate. Mouse anti-CD3/anti-CD28 dynabeads were prepared (following the manufacturers' instructions) in TexMACS media and added to appropriate wells to achieve a final concentration of 1 bead per cell. Unstimulated Control wells then received an identical volume of TexMACS. Plates were centrifuged 72 hours after addition of dynabeads, (300×g for 3 minutes) to pellet the cells and 60% of the supernatant was removed to a fresh plate for analysis by ELISA. After removal of 60% of the supernatant for subsequent ELISA, cell proliferation was assessed using the CCK-8 assay.
Average response by the standard compound, cyclosporin A, was 1 uM.

Mice (male, C57Bl/6) = experiment: Formalin pain assay in mice; format: in vivo; settings: Table 7; formalin 2.5%, left plantar
Experimental: Mice (male, C57BL/6) were placed singly in a Perspex chamber for approximately 30 min on three successive days to acclimate and thereby reduce stress-induced behaviors. On the fourth day, the experimental animals received a 25 μl injection of 2.5% formalin beneath the left plantar skin using a 29-gauge syringe. […] The total time spent on flinches/licking/biting of the hind paw was recorded by visual observation for every 5 min period/interval for total observation duration of 60 min in two phases, the early phase (0-5 min) and the late phase (15-40 min). Observers were blinded to the treatment group allocation.
For test compounds, the % protection from 0-60 min was used to assess activity. Scoring for the test compounds was as follows: “A” represents a % protection of 81 to 100%, “B” represents a % protection of 61 to 80%, “C” represents a % protection of 31 to 60% and “D” represents a % protection of 0 to 30%.

Rat DRG = experiment: Rat dorsal root ganglion excitability response (EFS, Ca2+ transients); format: cell-based; settings: Rattus norvegicus; Table 3; electrical field stimulation, Ca5 indicator; read-out: Scoring (EC50, Rat DRG excitability)
Experimental: Dorsal root ganglions (DRGs) were dissected from adult rats. The tissue was processed, and cells were seeded into call culture plates (48 center wells of one quadrant in 384-well plates) and cultured for 2 days prior to Electrical field stimulation (EFS). To visualize the neuronal excitability response, intracellular Ca^+2 transients were monitored using the Ca^+2 indicator, Ca5. Ca5 was added to the cultures 1 h prior to EFS. Representative test compounds of the invention (i.e., test compounds) and reference compound, tetracaine, were added in concentration-response format encompassing six concentrations, performed in duplicate. The highest concentration tested was typically 30 μM with 1 in 3 dilutions generating the subsequent concentrations.
Effects on DRG excitability by the test compounds and standard were evaluated using four EFS protocols as disclosed in Table 2.
Experimental results were performed using two separate sets of plates using separate test compound and standard dilutions, to provide n=2. In the first set of experiments, compounds were added 24 h prior to EFS to increase the possibility to also detect more long-term compound effects. In the second set of experiments the compounds were added directly prior to EFS. Excitability response to EFS was analyzed as the average fluorescence ratio (peak/baseline) change per well. All plates were evaluated using high content imaging equipment post-EFS, imaging the Ca5 background staining to detect any possible compound-related toxic effects.
Average response by the standard compound, tetracaine, was 4.05 μM.

[1] = Metabolism by human liver microsomes; format: in vitro ADME; settings: Table 8; 10 µM, in the presence of NADPH, 1 mg/mL protein
Experimental: Representative compounds of the invention (i.e., test compounds) and the positive control, 7-ethoxycoumarin, were prepared as stock solutions at 10 mM in DMSO and eventually diluted to 10 μM in the test plate, with an appropriate amount of acetonitrle and tris HCl buffer. Final DMSO and acetonitrile concentrations were […] and 0.5% respectively. NADPH was prepared in tris HCl buffer to a stock of 10 mM. A frozen aliquot of live microsomes was retrieved from the freezer (−80° C.) and thawed by placing the tube on wet ice. After thawing, the tubes were gently mixed and the required amount, transferred to tris HCl buffer. Test compounds or positive control were pre-incubated, separately, for 10 minutes, with liver microsomes (1 mg/mL protein), at 37° C., in 100 mM Tris HCl at pH 7.5. After preincubation the reaction was started by adding 1 mM NADPH (pre-equilibrated to […]) and the reaction allowed to proceed for 60 minutes. At 60 minutes, a 50 μL aliquot was removed and quenched with 200 uL of acetonitrile containing a mixture of internal standards (Tolbutamide (500 ng/mL) and Telmistartan (500 ng/mL)) and vortexed then centrifuged at 4000 rmp for 10 minutes (Eppendorf 5810R). The supernatant was transferred to a 96 well plate for LC-MS/MS analysis.
An LC-MS/MS method was devised for the test compounds and the control, using a AB Sciex API 4000 system coupled to a NEXAR™ UHPLC (Shimadzu) system. Analytes were separated on a Phenomenex Kinetex C18 column (50×2.1 mm, 5 μm) using a gradient that was appropriate for each compound, at a flow rate of 1 ml/minute, utilizing a mobile phase of 0.1% formic acid in MILLI-Q™ water (A) and 0.1% formic acid in acetonitrile (B). The MS instrument was operated in positive mode (ESI+)/negative (ESI−). The multiple reaction monitoring (MRM) transition for test and control compounds was used for the LC-MS/MS analysis. MRM transitions for control compound 7-ethoxycoumarinm were Quadropole 1: 191.0, Quadropole 3: 163.0, dwell time: 75 msec, using curtain gas settings of 5 V, ion-spray voltage of 5500 V, temperature of 50° C. and gas settings for nebulizer and auxiliary set to 30 and 40 psi, respectively. The interface heater was kept on. Entrance potential and collision cell exit potential were varied to tune for a specific compound.
Using a suitable LC-MS/MS method, the percentage of drug remaining at 60 minutes ([…]) was assessed by comparing the average analyte to internal standard area ratio at 60 minutes to the average analyte to internal standard area ratio at 0 time control, as a percentage, from a 5 to 10 μL sample injection.
According to the above assay, the representative compounds listed in Table 8 below were active in the Human liver microsome assay at […] and the % of drug remaining after 60 minutes (PDR60), in the presence of NADPH, was assessed by LC-MS/MS. Average PDR60 for the standard compound, 7-ethoxycoumarin was <=65% in the presence of NADPH. Scoring for the test compounds, in the presence of NADPH, was as follows: “A” represents a PDR^60 of 81 to 100%, “B” represents a PDR^60 of 61 to 80%, “C” represents a PDR^60 of 31 to 60% and “D” represents a PDR^60 of 0 to 30%.

SMILES	IC50 (T cells)	Scoring (% protection from 0-60 min) (Mice (male, C57Bl/6))	EC50 (Rat DRG)	Scoring (% of drug remaining after 60 minutes, PDR60) [1]
CC(C)CCC[C@@H](C)[C@H]1CC[C@H]2[C@H](CNCc3ccc4c(c3)OC(F)(F)O4)[C@@H]([C@@]3(C)Cc4cn[nH]c4C[C@@H]3CO)CC[C@]12C [Ia-7, ((5R,6S)-5-((1R,3aS,4S,5S,7aR)-4-((((2,2-difluorobenzo[d][1,3]dioxol-5-yl)methyl)amino)methyl)-7a-methyl-1-((R)-6-methylheptan-2-yl)octahydro-1H-inden-5-yl)-5-methyl-4,5,6,7-tetrahydro-1H-indazol-6-yl)methanol]	< 2 µM	–	–	–
C=C1CC[C@H]2[C@H](CN)[C@@H]([C@@]3(C)Cc4cnn(-c5ccccc5)c4C[C@@H]3CO)CC[C@]12C [Ia-8, ((5R,6S)-5-((3aS,4R,5S,7aS)-4-(aminomethyl)-7a-methyl-1-methyleneoctahydro-1H-inden-5-yl)-5-methyl-1-phenyl-4,5,6,7-tetrahydro-1H-indazol-6-yl)methanol]	–	D (a % protection of 0 to 30%)	2 to 6 µM	D (a PDR^60 of 0 to 30%)
C[C@@]12CCC[C@H]1[C@H](CO)[C@@H]([C@@]1(C)Cc3cn[nH]c3C[C@@H]1CO)CC2 [Ia-27, ((3aS,4S,5S,7aS)-5-((5R,6S)-6-(hydroxymethyl)-5-methyl-4,5,6,7-tetrahydro-1H-indazol-5-yl)-7a-methyloctahydro-1H-inden-4-yl)methanol]	–	D (a % protection of 0 to 30%)	6 to 15 µM	–
CC[C@H]1CC[C@H]2[C@H](CN)[C@@H]([C@@]3(C)Cc4cn[nH]c4C[C@@H]3CO)CC[C@]12C [Ia-29, ((5R,6S)-5-((1S,3aS,4S,5S,7aR)-4-(aminomethyl)-1-ethyl-7a-methyloctahydro-1H-inden-5-yl)-5-methyl-4,5,6,7-tetrahydro-1H-indazol-6-yl)methanol]	–	D (a % protection of 0 to 30%)	6 to 15 µM	C (a PDR^60 of 31 to 60%)
C=C1CC[C@H]2[C@H](CN)[C@@H]([C@@]3(C)Cc4c(C(F)F)n[nH]c4C[C@@H]3CO)CC[C@]12C [Ia-30, ((5R,6S)-5-((3aS,4R,5S,7aS)-4-(aminomethyl)-7a-methyl-1-methyleneoctahydro-1H-inden-5-yl)-3-(difluoromethyl)-5-methyl-4,5,6,7-tetrahydro-1H-indazol-6-yl)methanol]	6 to 15 µM	–	–	–
C=C1CC[C@H]2[C@H](CN)[C@@H]([C@@]3(C)Cc4c(C(F)(F)F)n[nH]c4C[C@@H]3CO)CC[C@]12C [Ia-31, ((5R,6S)-5-((3aS,4R,5S,7aS)-4-(aminomethyl)-7a-methyl-1-methyleneoctahydro-1H-inden-5-yl)-5-methyl-3-(trifluoromethyl)-4,5,6,7-tetrahydro-1H-indazol-6-yl)methanol]	2 to 6 µM	–	–	–
C[C@@]12CCC[C@H]1[C@H](CN)[C@@H]([C@@]1(C)Cc3cn[nH]c3C[C@@H]1CO)CC2 [Ia-33, ((5R,6S)-5-((3aS,4S,5S,7aS)-4-(aminomethyl)-7a-methyloctahydro-1H-inden-5-yl)-5-methyl-4,5,6,7-tetrahydro-1H-indazol-6-yl)methanol]	–	C (a % protection of 31 to 60%)	6 to 15 µM	B (a PDR^60 of 61 to 80%)
C[C@H]1CC[C@H]2[C@H](CN)[C@@H]([C@@]3(C)Cc4cn[nH]c4C[C@@H]3CO)CC[C@]12C [Ia-34, ((5R,6S)-5-((1S,3aS,4S,5S,7aR)-4-(aminomethyl)-1,7a-dimethyloctahydro-1H-inden-5-yl)-5-methyl-4,5,6,7-tetrahydro-1H-indazol-6-yl)methanol]	–	C (a % protection of 31 to 60%)	6 to 15 µM	B (a PDR^60 of 61 to 80%)
C=C1[C@@H](O)C[C@H]2[C@H](CO)[C@@H]([C@@]3(C)Cc4cn[nH]c4C[C@@H]3CO)CC[C@]12C [Ia-66, (2S,3aS,4R,5S,7aS)-4-(hydroxymethyl)-5-((5R,6S)-6-(hydroxymethyl)-5-methyl-4,5,6,7-tetrahydro-1H-indazol-5-yl)-7a-methyl-1-methyleneoctahydro-1H-inden-2-ol]	–	D (a % protection of 0 to 30%)	> 15 µM	A (a PDR^60 of 81 to 100%)
C=C1CC[C@H]2[C@H](CN)[C@@H]([C@@]3(C)Cc4conc4C[C@@H]3CO)CC[C@]12C [Ig-1, ((5R,6S)-5-((3aS,4R,5S,7aS)-4-(aminomethyl)-7a-methyl-1-methyleneoctahydro-1H-inden-5-yl)-5-methyl-4,5,6,7-tetrahydrobenzo[c]isoxazol-6-yl)methanol]	–	C (a % protection of 31 to 60%)	6 to 15 µM	A (a PDR^60 of 81 to 100%)
